Source: patent EP4741392A1, “1H-PYRAZOLO[4,3-C]PYRIDINE COMPOUND, AND COMPOSITION THEREOF AND USE THEREOF” (Shenzhen TargetRx Co., Ltd., priority 2023, dated 2025)
pIC50: −log10 of the molar value.

Assays:
BTK kinase = biological target: T1, BTK kinase (Homo sapiens, UniProt Q06187); experiment: Kinase activity inhibition assay (HTRF TK Kit); assay type: biochemical
T1 construct: purchased Invitrogen PV3587
Source text: (§1) In this assay, the HTRF TK Kit (Catalog No. 62TK0PEC) provided by Cisbio was used to detect the inhibitory activity of compounds on BTK kinase, BTK T474I kinase and BTK C481 S kinase and the selectivity of compounds relative to EGFR, ITK and TEC kinases.
(§2) Reagents and consumables: BTK kinase (Invitrogen, Catalog No. PV3587), BTK C481S (Carna, Product No. 08-547), BTK T474I(SignalChem Product No. B10-12HH), ITK (Cama, Product No. 08-181), EGFR (Cama, Product No. 08-115), TEC (Carna, Product No. 08-182), HTRF-TK kit (Cisbio, Product No. 62TK0PEC), MgCl2 (Sigma, Product No. M1028), MnCl2 (Sigma, Product No. M1787), DTT (Sigma, Product No. D0632), ATP (Sigma, Product No. A7699-1g), DMSO (Sigma, Product No. D2650), 384-well plate (PE, Product No. 6008280).
(§3) The entire operation steps were carried out on ice, and the total reaction volume was 10µL. A compound (4µL), substrate and ATP (4µL), and kinase (2µL) were added in sequence to a 384-well plate, and the plate was shaken for 30 seconds. The mixture was reacted at room temperature for an appropriate time, and then the detection reagent was added. The resulting mixture was reacted at room temperature for 1 hour, and then the plate was assayed with a microplate reader. The specific steps were as follows: • a) a 1 × kinase buffer solution required for the kinase assay was calculated according to the amount of the test compound, and prepared as needed; • b) 2.5 × working concentration of a compound was prepared, 100-fold gradient concentration solutions of a compound were diluted by 40 × to the desired concentration, respectively, mixed well, and added to each well at 4 µL per well; • c) 5 × working concentration of the substrate and ATP were prepared, mixed in a ratio of 1:1 before being added to the 384-well plate, and added to each well at 4 µL per well; • d) 5 × working concentration of a kinase was prepared, 2 µL of which was added to each well; • e) the plate was shaken on a microplate shaker for 30 seconds, sealed with a sealing membrane, and the mixture was reacted at room temperature for an appropriate time; • f) 4 × working concentration of streptavidin XL-665 and TK antibody-cryptate compound were prepared, mixed in a ratio of 1:1 before being added to the 384-well plate, and added to each well at 10 µL per well; • g) the mixture was reacted at room temperature for 1 hour, and then the plate was read; • h) the wells with only substrate, ATP and 1% DMSO added but no kinase were blank control wells, and the wells with only substrate, ATP, 1% DMSO and kinase were positive control wells.
(§4) Readings: The values of 620 nm (cryptate) and 665 nm (XL665) were read with a BioTek Synerg Neo2 microplate reader, the ratio of 665/620 for each well was calculated, and the data were exported.
(§5) Data analysis: IC50 was calculated using GraphPad Prism 7.0 software.
(§6) The IC50 (half-maximal inhibitory concentration) of the compound was obtained using the following nonlinear fitting formula: Y = Bottom + (Top−Bottom)/(1+10^(∧)((LogIC50−X)*HillSlope)) [formula] • X: Log value of the compound concentration • Y: Inhibition rate (% inhibition) • Top: Maximum response • Bottom: Baseline response • HillSlope: Slope of the curve
(§7) The formula for calculating kinase inhibition rate (inhibition rate %) was: [formula]

BTK C481S = biological target: T2, BTK C481S (Homo sapiens, UniProt Q06187, C481S); experiment: Kinase activity inhibition assay (HTRF TK Kit); assay type: biochemical
T2 construct: purchased Carna 08-547
T2 sequence (Q06187 whole entry C481S): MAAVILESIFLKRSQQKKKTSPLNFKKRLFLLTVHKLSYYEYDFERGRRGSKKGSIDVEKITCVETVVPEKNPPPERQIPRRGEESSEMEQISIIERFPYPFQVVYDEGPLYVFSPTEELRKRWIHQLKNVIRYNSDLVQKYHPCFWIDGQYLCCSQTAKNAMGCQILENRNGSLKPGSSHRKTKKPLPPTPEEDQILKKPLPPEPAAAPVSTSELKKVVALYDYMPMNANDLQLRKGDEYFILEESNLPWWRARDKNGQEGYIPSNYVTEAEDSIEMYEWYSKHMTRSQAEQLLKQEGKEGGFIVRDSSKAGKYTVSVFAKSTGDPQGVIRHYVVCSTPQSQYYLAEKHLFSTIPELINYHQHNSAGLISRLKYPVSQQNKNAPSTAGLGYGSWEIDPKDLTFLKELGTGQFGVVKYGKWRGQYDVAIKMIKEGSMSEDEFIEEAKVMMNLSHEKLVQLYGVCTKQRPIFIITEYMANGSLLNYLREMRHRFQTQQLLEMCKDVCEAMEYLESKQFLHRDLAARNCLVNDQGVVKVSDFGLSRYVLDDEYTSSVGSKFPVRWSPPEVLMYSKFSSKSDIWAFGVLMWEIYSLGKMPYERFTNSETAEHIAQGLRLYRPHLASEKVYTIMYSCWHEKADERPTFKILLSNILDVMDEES
Source text: as §1, §2, §3, §4, §5, §6, §7

BTK T474I = biological target: T3, BTK T474I (Homo sapiens, UniProt Q06187, T474I); experiment: Kinase activity inhibition assay (HTRF TK Kit); assay type: biochemical
T3 construct: purchased SignalChem B10-12HH
T3 sequence (Q06187 whole entry T474I): as the sequence (Q06187 whole entry C481S) above, with T474I, S481C counted along it
Source text: as §1, §2, §3, §4, §5, §6, §7

NIH/3T3 BTK C481S cells = experiment: Phosphor-BTK(Y223) assay, adherent cells; assay type: cell-based; settings: Mus musculus, NIH3T3, phosphorylated BTK Y223, NIH/3T3 BTK C481S cells; read-out: NIH/3T3 BTK-C481S pBTK
How it was run: (§8)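 NIH/3T3 cells expressing WT or C481S BTK were pretreated with compound for 0.5 h at 37 °C, then stimulated with 1 mM Na3VO4 (final) for 2 h. Lysates were assayed by HTRF for p-BTK Y223 using the 665/620 nm ratio. IC50 was obtained by nonlinear fit of % inhibition versus 0.5% DMSO control.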

NIH/3T3 BTK WT cells = experiment: Phosphor-BTK(Y223) assay, adherent cells; assay type: cell-based; settings: Mus musculus, NIH3T3, phosphorylated BTK Y223, NIH/3T3 BTK WT cells; read-out: NIH/3T3 BTK-WT pBTK
How it was run: as §8

T1 sequence (Q06187 whole entry): as the sequence (Q06187 whole entry C481S) above, with S481C counted along it

Compound | pIC50 (BTK kinase) | pIC50 (BTK C481S) | pIC50 (BTK T474I) | pIC50 (NIH/3T3 BTK C481S cells) | pIC50 (NIH/3T3 BTK WT cells)
COc1ccc(F)cc1C(=O)NCc1ccc(-c2ncc(-c3cccnc3)c3[nH]nc(N)c23)cc1 [Example 105, N-(4-(3-amino-7-(pyridin-3-yl)-1H-pyrazolo[4,3-c]pyridin-4-yl)benzyl)-5-fluoro-2-methoxybenzamide] | 7.30 to 8.30 | 6.30 to 7.30 | < 6.30 | < 7.30 | < 7.30
COc1ccc(F)cc1C(=O)NCc1ccc(-c2ncc(-c3ccc(OCCN(C)C)cn3)c3[nH]nc(N)c23)cc1 [Example 60, N-(4-(3-amino-7-(5-(2-(dimethylamino)ethoxy)pyridin-2-yl)-1H-pyrazolo[4,3-c]pyridin-4-yl)benzyl)-5-fluoro-2-methoxybenzamide] | ≥ 9.00 | ≥ 9.00 | 7.30 to 8.30 | ≥ 8.30 | ≥ 8.30
COc1ccc(F)cc1C(=O)NCc1ccc(-c2ncc(-c3ccc(CN4CCOCC4)cn3)c3[nH]nc(N)c23)cc1 [Example 67, N-(4-(3-amino-7-(5-(morpholinomethyl)pyridin-2-yl)-1H-pyrazolo[4,3-c]pyridin-4-yl)benzyl)-5-fluoro-2-methoxybenzamide] | ≥ 9.00 | ≥ 9.00 | 6.30 to 7.30 | ≥ 8.30 | ≥ 8.30
COc1ccc(F)cc1C(=O)NCc1ccc(-c2nc(C(C)C(F)(F)F)cc3[nH]nc(N)c23)cc1 (single isomer, unassigned) [Example 2, N-(4-(3-amino-6-(1,1,1-trifluoropropan-2-yl)-1H-pyrazolo[4,3-c]pyridin-4-yl)benzyl)-5-fluoro-2-methoxybenzamide] | 8.30 to 9.00 | 8.30 to 9.00 | 6.30 to 7.30 | 7.30 to 8.00 | 8.00 to 8.30
COc1ccc(F)cc1C(=O)NCc1ccc(-c2ncc(-c3cnccn3)c3[nH]nc(N)c23)cc1 [Example 18, N-(4-(3-amino-7-(pyrazin-2-yl)-1H-pyrazolo[4,3-c]pyridin-4-yl)benzyl)-5-fluoro-2-methoxybenzamide] | 7.30 to 8.30 | 8.30 to 9.00 | 6.30 to 7.30 | 7.30 to 8.00 | ≥ 8.30
COc1ccc(F)cc1C(=O)NCc1ccc(-c2ncc(-c3ccc(N4CCN(C)C[C@@H]4C)cn3)c3[nH]nc(N)c23)cc1 [Example 74, (S)-N-(-4-(3-amino-7-(5-(2,4-dimethylpiperazin-1-yl)pyridin-2-yl) 1H-pyrazolo[4,3-c]pyridin-4-yl)benzyl)-5-fluoro-2-methoxybenzamide] | 8.30 to 9.00 | 8.30 to 9.00 | 7.30 to 8.30 | ≥ 8.30 | ≥ 8.30
COc1ccc(F)cc1C(=O)NCc1ccc(-c2ncc(-c3ccc4c(n3)nc3n4C(C)COC3)c3[nH]nc(N)c23)cc1 (centres unmarked) [Example 103, N-(4-(3-amino-7-(6-methyl-6,7-dihydro-9H-pyrido[2',3':4,5]imidazo[2,1-c][1,4]oxazin-2-yl)-1H-pyrazolo[4,3-c]pyridin-4-yl)benzyl)-5-fluoro-2-methoxybenzamide] | 7.30 to 8.30 | 7.30 to 8.30 | 6.30 to 7.30 | 7.30 to 8.00 | 8.00 to 8.30
COc1ccc(F)cc1C(=O)NCc1ccc(-c2ncc(-c3cc4ncccn4n3)c3[nH]nc(N)c23)cc1 [Example 44, N-(4-(3-amino-7-(pyrazolo[1,5-a]pyrimidin-2-yl)-1H-pyrazolo[4,3-c]pyridin-4-yl)benzyl)-5-fluoro-2-methoxybenzamide] | ≥ 9.00 | ≥ 9.00 | 7.30 to 8.30 | ≥ 8.30 | ≥ 8.30
COc1ccc(F)cc1C(=O)NCc1ccc(-c2nc(C3CCOCC3)cc3[nH]nc(N)c23)cc1 [Example 115, N-(4-(3-amino-6-(tetrahydro-2H-pyran-4-yl)-1H-pyrazolo[4,3-c]pyridin-4-yl)benzyl)-5-fluoro-2-methoxybenzamide] | 7.30 to 8.30 | 8.30 to 9.00 | 6.30 to 7.30 | 8.00 to 8.30 | ≥ 8.30
COc1ccc(F)cc1C(=O)NCc1ccc(-c2ncc(-c3ncc(F)cn3)c3[nH]nc(N)c23)cc1 [Example 36, N-(4-(3-amino-7-(5-fluoropyrimidin-2-yl)-1H-pyrazolo[4,3-c]pyridin-4-yl)benzyl)-5-fluoro-2-methoxybenzamide] | 8.30 to 9.00 | 8.30 to 9.00 | 6.30 to 7.30 | 8.00 to 8.30 | 8.00 to 8.30
COc1ccc(F)cc1C(=O)NCc1ccc(-c2ncc(-c3nccn4cccc34)c3[nH]nc(N)c23)cc1 [Example 77, N-(4-(3-amino-7-(pyrrolo[1,2-a]pyrazin-1-yl)-1H-pyrazolo[4,3-c]pyridin-4-yl)benzyl)-5-fluoro-2-methoxybenzamide] | 8.30 to 9.00 | 8.30 to 9.00 | 6.30 to 7.30 | ≥ 8.30 | ≥ 8.30
COc1ccc(F)cc1C(=O)NCc1ccc(-c2ncc(-c3cc4n(n3)CCN(C)C4)c3[nH]nc(N)c23)cc1 [Example 71, N-(4-(3-amino-7-(5-methyl-4,5,6,7-tetrahydropyrazolo[1,5-a]pyrazin-2-yl)-1H-pyrazolo[4,3-c]pyridin-4-yl)benzyl)-5-fluoro-2-methoxybenzamide] | 8.30 to 9.00 | ≥ 9.00 | 7.30 to 8.30 | ≥ 8.30 | ≥ 8.30
COc1ccc(F)cc1C(=O)NCc1ccc(-c2nc(C(F)F)c(-c3ncccn3)c3[nH]nc(N)c23)cc1 [Example 85, N-(4-(3-amino-6-(difluoromethyl)-7-(pyrimidin-2-yl)-1H-pyrazolo[4,3-c]pyridin-4-yl)benzyl)-5-fluoro-2-methoxybenzamide] | 8.30 to 9.00 | 8.30 to 9.00 | 6.30 to 7.30 | 8.00 to 8.30 | ≥ 8.30
CCOC(=O)c1cnc2cc(-c3cnc(-c4ccc(CNC(=O)c5cc(F)ccc5OC)cc4)c4c(N)n[nH]c34)nn2c1 [Example 45, ethyl 2-(3-amino-4-(4-((5-fluoro-2-methoxybenzoylamino)methyl)phenyl)-1H-pyrazolo[4,3-c]pyridin-7-yl)pyrazolo[1,5-a]pyrimidine-6-carboxylate] | 7.30 to 8.30 | 7.30 to 8.30 | < 6.30 | 7.30 to 8.00 | 7.30 to 8.00
COc1ccc(F)cc1C(=O)NCc1ccc(-c2ncc(-c3cc4cnccn4n3)c3[nH]nc(N)c23)cc1 [Example 78, N-(4-(3-amino-7-(pyrazolo[1,5-a]pyrazin-2-yl)-1H-pyrazolo[4,3-c]pyridin-4-yl)benzyl)-5-fluoro-2-methoxybenzamide] | ≥ 9.00 | ≥ 9.00 | 7.30 to 8.30 | ≥ 8.30 | ≥ 8.30
COc1ccc(F)cc1C(=O)NCc1ccc(-c2ncc(-c3ccc(NC(=O)C4CC4)cn3)c3[nH]nc(N)c23)cc1 [Example 79, N-(4-(3-amino-7-(5-(cyclopropaneformamido)pyridin-2-yl)-1H-pyrazolo[4,3-c]pyridin-4-yl)benzyl)-5-fluoro-2-methoxybenzamide] | 7.30 to 8.30 | 7.30 to 8.30 | < 6.30 | 7.30 to 8.00 | 8.00 to 8.30
